Patent US20230159453A1 (COCRYSTAL PHARMA, INC., priority 2020, published 2023)

Molecular target: SARS2 protease (Severe acute respiratory syndrome coronavirus 2, UniProt P0DTD1)
Test: SARS-CoV-2 protease inhibition assay (SARS2 FRET protease assay)
Type: biochemical
Conditions: SARS-CoV-2 protease 25 nM, FRET, peptide substrate 1.3 μM, 30 minutes at 30° C., compounds 20 μM to 1.0 nM; read-out: IC50

SMILES	IC50 [nM]
CC(C)C[C@H](NC(=O)OC1CCN(C(=O)OC(C)(C)C)c2ccccc21)C(=O)N[C@@H](C[C@@H]1CCNC1=O)C(O)S(=O)(=O)O (stereo partly drawn) [Compound C58, (2S)-2-((2S)-2-((((1-(tert-butoxycarbonyl)-1,2,3,4-tetrahydroquinolin-4-yl)oxy)carbonyl)amino)-4-methylpentanamido)-1-hydroxy-3-((S)-2-oxopyrrolidin-3-yl) propane-1-sulfonate]	100
CC(C)C[C@H](NC(=O)OC1CCN(C(=O)OC(C)(C)C)CC1)C(=O)N[C@@H](C[C@@H]1CCNC1=O)C(O)S(=O)(=O)O (stereo partly drawn) [Compound C51, (2S)-2-((S)-2-((((1-(tert-butoxycarbonyl)piperidin-4-yl)oxy)carbonyl)amino)-4-methylpentanamido)-1-hydroxy-3-((S)-2-oxopyrrolidin-3-yl) propane-1-sulfonate]	115
CC(C)CN1C(=O)N[C@@H](C[C@@H]2CCNC2=O)C(O)N1C(=O)OCc1ccccc1 (stereo partly drawn) [Compound C129, Benzyl (5S)-6-hydroxy-2-isobutyl-3-oxo-5-(((S)-2-oxopyrrolidin-3-yl)methyl)-1,2,4-triazinane-1-carboxylate]	> 20000
O=C(N[C@@H](Cc1ccccc1)C(=O)N[C@@H](C[C@@H]1CCNC1=O)C(=O)C(=O)NC1CC1)OC1CCCC1Cc1cccc(Cl)c1 (stereo partly shown) [Compound C146]	> 20000
CCCOC(=O)N[C@@H](CC1CCCCC1)C(=O)N[C@@H](CCC(=O)N1CCOc2ccccc2C1)C(O)P(=O)(OCC)OCC (stereo partly drawn) [Compound C19, Propyl ((2S)-3-cyclohexyl-1-(((2S)-1-(diethoxyphosphoryl)-5-(2,3-dihydrobenzo[f][1,4]oxazepin-4(5H)-yl)-1-hydroxy-5-oxopentan-2-yl)amino)-1-oxopropan-2-yl)carbamate]	94300
CC1C[C@H](NC(=O)[C@H](CC2CCCCC2)NC(=O)OCc2cccc(Cl)c2)C(O)N(CCc2ccccc2)C1=O (stereo partly shown) [Compound C4]	> 200000
CCOP(=O)(OCC)C(O)[C@H](CCC(=O)N1CCNC(c2ccccc2)C1)NC(=O)[C@H](CC1CCCCC1)NC(=O)OCc1cccc(Cl)c1 (stereo partly drawn) [Compound C12, 3-Chlorobenzyl ((2S)-3-cyclohexyl-1-(((2S)-1-(diethoxyphosphoryl)-1-hydroxy-5-oxo-5-(3-phenylpiperazin-1-yl)pentan-2-yl)amino)-1-oxopropan-2-yl)carbamate]	> 200000
COc1cccc2[nH]c(C(=O)N[C@@H](CC(C)C)C(=O)NC(CC3CC4(CCCCC4)NC3=O)C(=O)CO)cc12 (stereo partly drawn) [Compound C233, N-((2S)-1-((4-hydroxy-3-oxo-1-(2-oxo-1-azaspiro[4.5]decan-3-yl)butan-2-yl)amino)-4-methyl-1-oxopentan-2-yl)-4-methoxy-1H-indole-2-carboxamide]	20
CC(C)(c1cccc(Cl)c1)C(OC(=O)N[C@@H](CC1CCCCC1)C(=O)N[C@H](C=O)C[C@@H]1CCNC1=O)c1ccc2c(c1)CCC2 (stereo partly drawn) [Compound C132, 2-(3-Chlorophenyl)-1-(2,3-dihydro-1H-inden-5-yl)-2-methylpropyl ((S)-3-cyclohexyl-1-oxo-1-(((S)-1-oxo-3-((S)-2-oxopyrrolidin-3-yl)propan-2-yl)amino)propan-2-yl)carbamate]	60
CCCCC[C@H](NC(=O)OC(c1ccccc1)C(C)(C)c1cccc(Cl)c1)C(=O)N[C@H](C=O)C[C@@H]1CCNC1=O (stereo partly shown) [Compound C267]	100
O=C(N[C@@H](CC1CCCCC1)C(=O)N[C@@H](C[C@@H]1CCNC1=O)C(=O)C(=O)NC1CC1)OC(c1cccc(Cl)c1)C1(c2cccc(Cl)c2)CC1 (stereo partly shown) [Compound C213]	257
CC(=O)N1CCC2(CC1)CC(CC(C=O)NC(=O)[C@H](CC1CCCCC1)NC(=O)c1cc3ccccc3[nH]1)C(=O)N2 (stereo partly drawn) [Compound C75, N-((2S)-1-((1-(8-acetyl-2-oxo-1,8-diazaspiro[4.5]decan-3-yl)-3-oxopropan-2-yl)amino)-3-cyclohexyl-1-oxopropan-2-yl)-1H-indole-2-carboxamide]	1.2
CC(C)(c1cccc(Cl)c1)[C@@H](OC(=O)N[C@@H](CC1CCCCC1)C(=O)N[C@@H](C[C@@H]1CCNC1=O)C(=O)C(=O)NC1CC1)c1cccc(F)c1 [Compound C184, (S)-2-(3-chlorophenyl)-1-(3-fluorophenyl)-2-methylpropyl ((S)-3-cyclohexyl-1-(((S)-4-(cyclopropylamino)-3,4-dioxo-1-((S)-2-oxopyrrolidin-3-yl)butan-2-yl)amino)-1-oxopropan-2-yl)carbamate]	2320
CC(C)C[C@H](NC(=O)OC(Cc1cccc(Cl)c1)c1ccccc1)C(=O)N[C@@H](C[C@@H]1CCNC1=O)C(O)S(=O)(=O)O (stereo partly drawn) [Compound C114, Sodium (2S)-2-((2S)-2-(((2-(3-chlorophenyl)-1-phenylethoxy)carbonyl)amino)-4-methylpentanamido)-1-hydroxy-3-((S)-2-oxopyrrolidin-3-yl) propane-1-sulfonate]	11.1
CC(C)C[C@H](NC(=O)OC(c1cccc(Cl)c1)C(F)(F)c1cccc(Cl)c1)C(=O)N[C@H](C=O)C[C@@H]1CCNC1=O (stereo partly shown) [Compound C266]	20
CS(=O)(=O)N1CCC(OC(=O)N[C@@H](CC2CCCCC2)C(=O)N[C@H](C=O)CCC(=O)N2CCOc3ccccc3C2)CC1 [Compound C30, 1-(Methylsulfonyl) piperidin-4-yl((S)-3-cyclohexyl-1-(((S)-5-(2,3-dihydrobenzo[f][1,4]oxazepin-4(5H)-yl)-1,5-dioxopentan-2-yl)amino)-1-oxopropan-2-yl)carbamate]	42300
COc1cccc2[nH]c(C(=O)N[C@@H](CC(C)C)C(=O)NC(C=O)CC3CC4(CCCCC4)NC3=O)cc12 (stereo partly drawn) [Compound C214, 4-Methoxy-N-((2S)-4-methyl-1-oxo-1-((1-oxo-3-(2-oxo-1-azaspiro[4.5]decan-3-yl)propan-2-yl)amino)pentan-2-yl)-1H-indole-2-carboxamide]	11
CC(C)(c1cccc(Cl)c1)C(OC(=O)N[C@@H](CC1CCCCC1)C(=O)N[C@@H](C[C@@H]1CCNC1=O)C(=O)CO)c1ccccc1 (stereo partly shown) [Compound C273]	5350
CC1(C)CC(C[C@H](NC(=O)[C@H](CC2CCCCC2)NC(=O)OC2CCCC2Cc2cccc(Cl)c2)C(=O)C(=O)NC2CC2)C(=O)N1 (stereo partly drawn) [Compound C167, 2-(3-Chlorobenzyl)cyclopentyl ((2S)-3-cyclohexyl-1-((4-(cyclopropylamino)-1-(5,5-dimethyl-2-oxopyrrolidin-3-yl)-3,4-dioxobutan-2-yl)amino)-1-oxopropan-2-yl)carbamate]	2050
CC(C)C[C@H](NC(=O)OC(c1cccc(Cl)c1)C1(c2cccc(Cl)c2)CC1)C(=O)N[C@@H](C[C@@H]1CCNC1=O)C(=O)C(=O)NC1CC1 (stereo partly drawn) [Compound C187, (3-chlorophenyl)(1-(3-chlorophenyl)cyclopropyl)methyl ((S)-1-(((S)-4-(cyclopropylamino)-3,4-dioxo-1-((S)-2-oxopyrrolidin-3-yl)butan-2-yl)amino)-4-methyl-1-oxopentan-2-yl)carbamate]	109
CC(C)C(=O)N1CCC2(CC1)CC(CC(NC(=O)[C@H](CC1CCCCC1)NC(=O)c1cc3ccccc3[nH]1)C(=O)C(N)=O)C(=O)N2 (stereo partly drawn) [Compound C138, N-((2S)-1-((4-amino-1-(8-isobutyryl-2-oxo-1,8-diazaspiro[4.5]decan-3-yl)-3,4-dioxobutan-2-yl)amino)-3-cyclohexyl-1-oxopropan-2-yl)-1H-indole-2-carboxamide]	245
COc1cccc2[nH]c(C(=O)N[C@@H](CC(C)C)C(=O)NC(CC3CC4(CCCCC4)NC3=O)C(=O)CCl)cc12 (stereo partly drawn) [Compound C227, N-((2S)-1-((4-chloro-3-oxo-1-(2-oxo-1-azaspiro[4.5]decan-3-yl)butan-2-yl)amino)-4-methyl-1-oxopentan-2-yl)-4-methoxy-1H-indole-2-carboxamide]	59
CC(C)C[C@H](NC(=O)OC1(Cc2ccccc2)CCC1)C(=O)N[C@@H](C[C@@H]1CCNC1=O)C(O)S(=O)(=O)O (stereo partly drawn) [Compound C63, (2S)-2-((S)-2-(((1-Benzylcyclobutoxy)carbonyl)amino)-4-methylpentanamido)-1-hydroxy-3-((S)-2-oxopyrrolidin-3-yl)propane-1-sulfonate]	1600
CC(C)C[C@H](NC(=O)OC(c1ccc(Cl)cc1)C1(c2cccc(Cl)c2)CC1)C(=O)N[C@@H](C[C@@H]1CCNC1=O)C(=O)C(=O)NC1CC1 (stereo partly drawn) [Compound C201, (4-Chlorophenyl)(1-(3-chlorophenyl)cyclopropyl) methyl ((S)-1-(((S)-4-(cyclopropylamino)-3,4-dioxo-1-((S)-2-oxopyrrolidin-3-yl)butan-2-yl)amino)-4-methyl-1-oxopentan-2-yl) carbamate]	4.4
O=C[C@H](C[C@@H]1CCNC1=O)NC(=O)[C@H](CC1CCCCC1)NC(=O)O[C@H]1CCC[C@H]1Cc1cccc(Cl)c1 [Compound C224, (1S,2S)-2-(3-Chlorobenzyl) cyclopentyl ((S)-3-cyclohexyl-1-oxo-1-(((S)-1-oxo-3-((S)-2-oxopyrrolidin-3-yl)propan-2-yl)amino)propan-2-yl) carbamate]	183
CC(C)(c1cccc(Cl)c1)C(OC(=O)N[C@@H](CC1CCCCC1)C(=O)N[C@@H](C[C@@H]1CCNC1=O)C(=O)C(N)=O)c1ccc(Cl)cc1 (stereo partly drawn) [Compound C134, 2-(3-Chlorophenyl)-1-(4-chlorophenyl)-2-methylpropyl ((S)-1-(((S)-4-amino-3,4-dioxo-1-((S)-2-oxopyrrolidin-3-yl)butan-2-yl)amino)-3-cyclohexyl-1-oxopropan-2-yl)carbamate]	767
CC(C)(c1cccc(Cl)c1)C(OC(=O)N[C@@H](CC1CCCCC1)C(=O)N[C@H](C=O)C[C@@H]1CCNC1=O)c1ccccc1 (stereo partly drawn) [Compound C110, 2-(3-Chlorophenyl)-2-methyl-1-phenylpropyl ((S)-3-cyclohexyl-1-oxo-1-(((S)-1-oxo-3-((S)-2-oxopyrrolidin-3-yl)propan-2-yl)amino)propan-2-yl) carbamate]	1.4
O=C(N[C@@H](CC1CCCCC1)C(=O)NC(CC1CC2(CCOCC2)NC1=O)C(=O)C(=O)NC1CC1)OCc1cccc(Cl)c1 (stereo partly drawn) [Compound C176, 3-Chlorobenzyl ((2S)-3-cyclohexyl-1-((4-(cyclopropylamino)-3,4-dioxo-1-(2-oxo-8-oxa-1-azaspiro[4.5]decan-3-yl)butan-2-yl)amino)-1-oxopropan-2-yl)carbamate]	1570
